Source: publication PMC4335020, “Single Oral Dose Pharmacokinetics of Decursin and Decursinol Angelate in Healthy Adult Men and Women” (PLoS ONE, 2015)
Where two headings read alike, the source gives them in different places.

Experiment: Single oral dose human plasma pharmacokinetics of D, DA and DOH after Cogni.Q
Type: in vivo
Settings: for Cmax / Tmax / half-life / AUC(0-t): plasma
Excerpt: Ten healthy male and 10 female subjects were recruited by public announcement in Amarillo, TX, from January 2013 to April 2013 (see Fig. 1 CONSORT diagram). The sample size for each gender was chosen without power calculation due to the lack of prior knowledge of PK parameter variance in humans. After receiving informed consent verbally and in writing, the health status of each candidate was confirmed by health questionnaire, plasma biochemistry (hepatic and renal functions), complete blood cell count (CBC), and a physical examination by a participating academic physician. Subjects with diabetes, or pregnant, perinatal and breastfeeding women were excluded. For the 48 hours preceding study visit until the final blood draw, all subjects were instructed to avoid taking any prescription or nonprescription drugs, vitamins, and herbal/dietary supplements. Each subject was compensated for participating in the study per TTUHSC IRB approved rate.
Eligible subjects arrived at our clinical facility at 0700 (7:00 am) on the test day after a fast beginning at 2200 (10:00 pm) the previous night. After a brief review of vital signs, the nurse placed an intravenous (IV) line with saline drip in one arm of each subject. A baseline pre-dose (hour 0) blood sample was drawn through the IV line; after that subjects swallowed four Cogni.Q vegicaps with 240 mL of water at hour 0 under direct supervision. Subjects stayed at the clinical facility in their room for the next 12 hours, returning at 24 and 48 hours. Blood was drawn at baseline (hour 0) and at 0.5, 1, 2, 3, 4, 6, 8, 12, 24 and 48 hours after dosing into Vacutainer Blood Collection Tube (Becton-Dickinson, Franklin Lakes, NJ. Product Number: 367874, Sodium heparin was used as anti-coagulant). Water was allowed as desired except for within the first hour after Cogni.Q consumption. All subjects received standardized meals at post-dose hours 4.5 and 9.5 but no food was allowed for at least the first 4 hours post-dose.
Plasma was prepared by centrifuging the heparinized blood at 1000 g for 15 minutes at room temperature. Urine samples (40mL) were collected within time spans of 0–4, 4–8, 8–12 and 12–24 hours (total volume of urine was recorded). All plasma and urine samples were put on dry ice immediately and then stored at -80°C freezer until analysis.
Plasma samples were extracted with a validated solid supported liquid extraction (SLE) method facilitated with a positive pressure manifold (Biotage, Charlotte, NC). Briefly, 100 μL of plasma sample was spiked with 5 μL of 10 ng/μL prednisolone (IS), diluted with 200 μL of LC-MS grade water, mixed and loaded onto ISOLUTE SLE+ 400 μL Array Well cartridges (Biotage, Charlotte, NC). A pulse of minimum positive pressure was applied to facilitate the samples absorption into the cartridges. After the samples were allowed to absorb for 5 min, the compounds were eluted with 2×500 μL tert-butyl methyl ether. The eluent was dried in a Speedvac and the resulting residue was reconstituted in 50 μL of methanol for UHPLC-MS/MS analysis.
Eight-point calibration curves were constructed for D, DA and DOH, at concentrations of 0.1, 0.5, 1, 5, 10, 20, 50 and 100 μg/L for D and DA, and at concentrations of 1, 5, 10, 50, 100, 200, 500 and 1000 μg/L for DOH, respectively. The linear range was 0.1–100 μg/L (0.3–300 nmol/L), 0.1–100 μg/L (0.3–300 nmol/L) and 1–1000 μg/L (4–4000 nmol/L) for D, DA and DOH, respectively. The inter- and intra-assay CV were lower than 6.5% and the accuracy was between 90–105%. Calibration curve was run for each batch of samples analyzed. The mean calibration curve correlation coefficient (r) for D, DA and DOH was 0.999, 0.999 and 0.998, respectively (data from 7–10 calibration curves). In addition, 70% of the plasma samples were extracted and analyzed twice, the data from two replicate analyses were nearly identical and combined for final data analyses and presentation. […]

C/C=C(/C)C(=O)O[C@H]1Cc2cc3ccc(=O)oc3cc2OC1(C)C [DA, decursinol angelate]
Cmax (all human subjects n = 20, single oral dose 4 Cogni.Q vegicaps (119 mg D, 77 mg DA), read-out: Cmax, nmol/L Mean (SD)): 48.1 nmol/L | variation in C max and AUC0–48h among individual subjects (all subjects): ≤ 60 fold | Cmax (both sexes, human, oral, 4 Cogni.Q vegicaps, n=20 (S1 Table), read-out: Cmax, nM, Grand Mean): 48.1 nmol/L | Tmax (both sexes, human, oral, 4 Cogni.Q vegicaps, n=20 (S1 Table), read-out: Tmax, h, Grand Mean): 2.4 h | half-life (both sexes, human, oral, all subjects, outliers excluded (S1 Table), read-out: Terminal t1/2, h, Grand Mean (converted)): 19.3 h | AUC(0-t) (both sexes, human, oral, n=20 (S1 Table), read-out: AUC0-48h, Grand Mean): 335 nmol·h/L | Cmax (both sexes, human, po, all human subjects n = 20, single oral dose 4 Cogni.Q vegicaps (119 mg D, 77 mg DA), read-out: Cmax, nmol/L Mean (SD)): 48 nmol/L | Tmax (both sexes, human, po, all human subjects n = 20, single oral dose 4 Cogni.Q vegicaps (119 mg D, 77 mg DA), read-out: Tmax, h, Mean (SD)): 2.4 h | AUC(0-t) (both sexes, human, po, all human subjects n = 20, single oral dose Cogni.Q, plasma (Table 2), read-out: AUC0–48h, nmol/L, Mean (SD)): 335 nmol·h/L | half-life (both sexes, human, po, all human subjects, four outlier subjects excluded, single oral dose Cogni.Q, read-out: Terminal t1/2, h, Mean (SD) (converted)): 19.3 h | AUC(0-t) (both sexes, human, po, twenty healthy subjects, single oral dose Cogni.Q, plasma (abstract), read-out: mean area under the curve (AUC0-48h)): 335 nmol·h/L | AUC(0-t) (female, human, oral, 4 Cogni.Q vegicaps, Women n=10 (S1 Table), read-out: AUC0-48h, Mean, F): 344 nmol·h/L | Cmax (female, human, oral, 4 Cogni.Q vegicaps, Women n=10 (S1 Table), read-out: Cmax, nM, Mean, F): 43.9 nmol/L | Tmax (female, human, oral, Women n=10 (S1 Table), read-out: Tmax, h, Mean, F): 2.7 h | half-life (female, human, oral, Women, outliers excluded (S1 Table), read-out: Terminal t1/2, h, Mean, F (converted)): 23.7 h | AUC(0-t) (female, human, po, Women N = 10, single oral dose Cogni.Q, read-out: AUC0–48h, h.nmol/L Mean (SD)): 344 nmol·h/L | Cmax (female, human, po, Women N = 10, single oral dose Cogni.Q, read-out: Cmax, nmol/L, Mean (SD)): 43.9 nmol/L | Tmax (female, human, po, Women N = 10, single oral dose Cogni.Q, read-out: Tmax, h, Mean (SD)): 2.7 h | half-life (female, human, po, Women, outlier subjects excluded, single oral dose Cogni.Q, read-out: T1/2, h, terminal Mean (SD) (converted)): 23.7 h | half-life (human, oral, 4 Cogni.Q vegicaps, subject S1 (115 lb), outlier, excluded from means, read-out: Terminal t1/2, h (converted)): 20.2 h | AUC(0-t) (human, oral, 4 Cogni.Q vegicaps, subject S1 (115 lb), read-out: AUC0-48h): 190 nmol·h/L | Cmax (human, oral, 4 Cogni.Q vegicaps, subject S1 (115 lb), read-out: Cmax): 23.4 nmol/L | Tmax (human, oral, 4 Cogni.Q vegicaps, subject S1 (115 lb), read-out: Tmax): 2 h | AUC(0-t) (human, oral, 4 Cogni.Q vegicaps, subject S2 (194 lb), read-out: AUC0-48h): 97.5 nmol·h/L | Cmax (human, oral, 4 Cogni.Q vegicaps, subject S2 (194 lb), read-out: Cmax): 13.4 nmol/L | half-life (human, oral, 4 Cogni.Q vegicaps, subject S2 (194 lb), read-out: Terminal t1/2, h (converted)): 38.6 h | Tmax (human, oral, 4 Cogni.Q vegicaps, subject S2 (194 lb), read-out: Tmax): 3 h | half-life (human, oral, 4 Cogni.Q vegicaps, subject S3 (170 lb), outlier, excluded from means, read-out: Terminal t1/2, h (converted)): 31.4 h | AUC(0-t) (human, oral, 4 Cogni.Q vegicaps, subject S3 (170 lb), read-out: AUC0-48h): 142 nmol·h/L | Cmax (human, oral, 4 Cogni.Q vegicaps, subject S3 (170 lb), read-out: Cmax): 27.2 nmol/L | Tmax (human, oral, 4 Cogni.Q vegicaps, subject S3 (170 lb), read-out: Tmax): 6 h | AUC(0-t) (human, oral, 4 Cogni.Q vegicaps, subject S4 (170 lb), read-out: AUC0-48h): 1060 nmol·h/L | Cmax (human, oral, 4 Cogni.Q vegicaps, subject S4 (170 lb), read-out: Cmax): 100 nmol/L | half-life (human, oral, 4 Cogni.Q vegicaps, subject S4 (170 lb), read-out: Terminal t1/2, h (converted)): 17.7 h | Tmax (human, oral, 4 Cogni.Q vegicaps, subject S4 (170 lb), read-out: Tmax): 2 h | AUC(0-t) (human, oral, 4 Cogni.Q vegicaps, subject S5 (161 lb), read-out: AUC0-48h): 294 nmol·h/L | Cmax (human, oral, 4 Cogni.Q vegicaps, subject S5 (161 lb), read-out: Cmax): 21.4 nmol/L | half-life (human, oral, 4 Cogni.Q vegicaps, subject S5 (161 lb), read-out: Terminal t1/2, h (converted)): 12 h | Tmax (human, oral, 4 Cogni.Q vegicaps, subject S5 (161 lb), read-out: Tmax): 1 h | AUC(0-t) (human, oral, 4 Cogni.Q vegicaps, subject S6 (120 lb), read-out: AUC0-48h): 696 nmol·h/L | Cmax (human, oral, 4 Cogni.Q vegicaps, subject S6 (120 lb), read-out: Cmax): 84.3 nmol/L | half-life (human, oral, 4 Cogni.Q vegicaps, subject S6 (120 lb), read-out: Terminal t1/2, h (converted)): 16.2 h | Tmax (human, oral, 4 Cogni.Q vegicaps, subject S6 (120 lb), read-out: Tmax): 3 h | AUC(0-t) (human, oral, 4 Cogni.Q vegicaps, subject S7 (180 lb), read-out: AUC0-48h): 432 nmol·h/L | Cmax (human, oral, 4 Cogni.Q vegicaps, subject S7 (180 lb), read-out: Cmax): 74.3 nmol/L | half-life (human, oral, 4 Cogni.Q vegicaps, subject S7 (180 lb), read-out: Terminal t1/2, h (converted)): 17.4 h | Tmax (human, oral, 4 Cogni.Q vegicaps, subject S7 (180 lb), read-out: Tmax): 4 h | AUC(0-t) (human, oral, 4 Cogni.Q vegicaps, subject S8 (160 lb), read-out: AUC0-48h): 1600 nmol·h/L | Cmax (human, oral, 4 Cogni.Q vegicaps, subject S8 (160 lb), read-out: Cmax): 183 nmol/L | half-life (human, oral, 4 Cogni.Q vegicaps, subject S8 (160 lb), read-out: Terminal t1/2, h (converted)): 16.7 h | Tmax (human, oral, 4 Cogni.Q vegicaps, subject S8 (160 lb), read-out: Tmax): 3 h | AUC(0-t) (human, oral, 4 Cogni.Q vegicaps, subject S9 (158 lb), read-out: AUC0-48h): 80.8 nmol·h/L | Cmax (human, oral, 4 Cogni.Q vegicaps, subject S9 (158 lb), read-out: Cmax): 13.6 nmol/L | half-life (human, oral, 4 Cogni.Q vegicaps, subject S9 (158 lb), read-out: Terminal t1/2, h (converted)): 19.1 h
